From patent US11453669B2, “Polycyclic pyridone derivative” (Shionogi & Co., Ltd., priority 2018, dated 2022)
Like-named read-outs stand apart in the source and are kept apart here.

Assays:
HIV = assay: Anti-HIV activity (MT-4 cells, MTT); format: cell-based; settings: Human immunodeficiency virus 1, MT4, 96 h, read-out: EC50_nM (50% HIV inhibitory concentration)
Procedure: Serial dilutions of a test sample were prepared in a 96-well microplate (50 μL/well). 2.5×10^5 cells/mL of an MT-4 cell suspension was dispensed at 100 μL/well to the plate containing the test sample. Then, an HIV virus solution was dispensed at 50 μL/well. The plate was mixed with a plate mixer and cultured for 4 days in a CO2 incubator. An MTT (3-(4,5-dimethylthiazol-2-yl)-2,5-diphenyltetrazolium bromide) solution was dispensed at 30 μL/well. The plate was reacted for 1 hour in a CO2 incubator. 150 μL of the supernatant was removed from each well so as not to take up the cells. 150 μL of a cell lysis solution was added to each well and well mixed with a plate mixer until the cells were completely lysed. The absorbance of the mixed plate was measured at two wavelengths of 560 nm and 690 nm using a microplate reader.

[1] = test system: HIV mutant strain 2 (E92Q/E138T/G140S/Q148H); format: cell-based; settings: FC=EC50 of the mutant strain/EC50 of the wild strain, HeLa-CD4 cells
Procedure: (§1) Serial dilutions of a test sample were prepared in a 96-well microplate (50 μL/well). 2.5×10^5 cells/mL of a HeLa-CD4 cell suspension was dispensed at 100 μL/well to the plate containing the test sample. Then, an HIV virus solution (wild strain and mutant strain) was dispensed at 50 μL/well. The plate was mixed with a plate mixer and cultured for 3 days in a CO2 incubator. The culture supernatant in each well was removed by suction. A cell lysis buffer in a reporter assay kit was dispensed at 100 μL/well, and the plate was frozen in a freezer (−80° C.). The plate frozen in a freezer was thawed at room temperature, then mixed with a plate mixer, and centrifuged at 1,200 rpm for 5 minutes. The supernatant of each well was dispensed at 20 μL/well to a 96-well microplate (BLACK). A chemiluminescent in the reporter assay kit reagent was dispensed at 100 μL/well and reacted at room temperature for approximately 1 hour. Then, luminescence intensity was measured using MicroBeta TRILUX.

[2] = test system: HIV mutant strain 1 (E138K/G140S/Q148H/N155H); format: cell-based; settings: FC=EC50 of the mutant strain/EC50 of the wild strain, HeLa-CD4 cells
Procedure: as §1

[3] = format: in vitro ADME; settings: human, 30 min, 0.5 μmol/L, pH 7.4
Procedure: Using commercially available pooled human liver microsomes, a compound of the present invention was reacted for a constant time, and a remaining rate was calculated by comparing a reacted sample and an unreacted sample, thereby, a degree at which the compound of the present invention was metabolized in liver was assessed.
A reaction was performed (oxidative reaction) at 37° C. for 0 minute or 30 minutes in the presence of 1 mmol/L NADPH in 0.2 mL of a buffer solution (50 mmol/L Tris-HCl pH 7.4, 150 mmol/L potassium chloride, 10 mmol/L magnesium chloride) containing 0.5 mg protein/mL of human liver microsomes. After the reaction, 50 μL of the reaction solution was added to 100 μL of a solution of methanol/acetonitrile=1/1 (v/v), and the mixture was mixed and centrifuged at 3000 rpm for 15 minutes. The compound of the present invention in the centrifugation supernatant was quantified by LC/MS/MS or solid-phase extraction (SPE)/MS. The amount of the compound of the present invention remaining after the reaction was calculated with the amount of the compound at 0 minutes of the reaction defined as 100%.

[4] = MT-4 cells, cultured 4 days, MTT

SMILES | EC50 (HIV; [4]) [nM] | other results
CC(C)N1C(=O)c2c(O)c(=O)c(-c3nnc(Cc4c(F)cc(F)cc4F)s3)cn2N2C[C@@H]3CC[C@@H](O3)[C@@H]12 [II-054] |  | EC50 (HIV): 1 nM; FC (fold change) for mutant strain 2 [1]: 8.2; FC (fold change) for mutant strain 1 [2]: 3.5; residual rate [3]: 98.8
CN1C(=O)c2c(O)c(=O)c(-c3nnc(Cc4c(F)cc(F)cc4F)s3)cn2N2CCOC[C@@H]12 [II-012] | 0.25 | 
CCN1C(=O)c2c(O)c(=O)c(-c3nnc(Cc4ccc(F)cc4F)s3)cn2N2C[C@H]3CC[C@H](O3)[C@H]12 [II-047] | 1.4 | 
CN1C(=O)c2c(O)c(=O)c(-c3nnc(Cc4c(F)cc(F)cc4F)s3)cn2N2C[C@H]3CC[C@H](O3)[C@H]12 [II-036] | 2 | 
CCN1C(=O)c2c(O)c(=O)c(-c3cnn(Cc4cccc(Cl)c4F)c3)cn2N2CCCC[C@@H]12 [II-008] | 4.5 | 
C[C@@H]1CC[C@@H]2N(C)C(=O)c3c(O)c(=O)c(-c4nnc(Cc5ccc(F)cc5F)s4)cn3N12 [II-028] | 0.13 | 
CN1C(=O)c2c(O)c(=O)c(-c3nnc(Cc4ccc(F)cc4F)s3)cn2N2Cc3ccccc3[C@H]12 [II-039] | 3.8 | 
CCN1C(=O)c2c(O)c(=O)c(-c3nnc(Cc4ccc(F)cc4F)s3)cn2N2CCOC[C@H]12 [II-015] | 1.6 | 
CC(C)N1C(=O)c2c(O)c(=O)c(-c3nnc(Cc4c(F)cc(F)cc4F)s3)cn2N2CC[C@@H](C)C[C@@H]12 [II-060] | 2.7 | 
CCN1C(=O)c2c(O)c(=O)c(-c3nnc(Cc4ccc(F)cc4F)s3)cn2N2[C@H](C)CCC[C@@H]12 [II-066] | 1.1 | 
CN1C(=O)c2c(O)c(=O)c(-c3nnc(Cc4cccc(Cl)c4F)s3)cn2N2CCOC[C@@H]12 [II-069] |  | EC50 (HIV): 0.24 nM; FC (fold change) for mutant strain 2 [1]: 25; FC (fold change) for mutant strain 1 [2]: 30; residual rate [3]: 102
CCN1C(=O)c2c(O)c(=O)c(-c3nnc(Cc4c(F)cc(F)cc4F)s3)cn2N2[C@H](C)CCC[C@@H]12 [II-044] |  | EC50 (HIV): 1.4 nM; FC (fold change) for mutant strain 2 [1]: 26; FC (fold change) for mutant strain 1 [2]: 11; residual rate [3]: 88.5
CCN1C(=O)c2c(O)c(=O)c(-c3ncc(Cc4ccc(F)cc4F)s3)cn2N2CCCC[C@H]12 [Compound I-003] | 7.1 | 
CCN1C(=O)c2c(O)c(=O)c(-c3nnc(Cc4c(F)cc(F)cc4F)s3)cn2N2C[C@H]3CC[C@H](O3)[C@H]12 [II-045] | 2 | 
CCN1C(=O)c2c(O)c(=O)c(-c3nnc(Cc4ccc(F)c(F)c4F)s3)cn2N2CCCC[C@@H]12 [Compound I-014] | 1.3 | 
CCN1C(=O)c2c(O)c(=O)c(-c3nnc(Cc4c(F)cc(F)cc4F)s3)cn2N2CC[C@H](C)[C@@H]12 [II-026] | 0.39 | 
CCN1C(=O)c2c(O)c(=O)c(-c3nnc(Cc4c(F)cc(F)cc4F)s3)cn2N2C[C@@H](C)C[C@@H]12 [II-027] |  | EC50 (HIV): 1.9 nM; FC (fold change) for mutant strain 2 [1]: 7; FC (fold change) for mutant strain 1 [2]: 4.7; residual rate [3]: 90.5
CCN1C(=O)c2c(O)c(=O)c(-c3nnc(Cc4c(F)cc(F)cc4F)s3)cn2N2C[C@@H](C)C[C@H]12 [II-025] | 0.9 | 
CCN1C(=O)c2c(O)c(=O)c(-c3nnc(Cc4ccc(F)cc4)s3)cn2N2CCOC[C@H]12 [II-019] | 2.1 | 
CCN1C(=O)c2c(O)c(=O)c(-c3nnc(Cc4c(F)cc(F)cc4F)s3)cn2N2CC[C@@H](C)C[C@@H]12 [II-057] |  | EC50 (HIV): 1.7 nM; FC (fold change) for mutant strain 2 [1]: 3.6; FC (fold change) for mutant strain 1 [2]: 3; residual rate [3]: 82.5
CCN1C(=O)c2c(O)c(=O)c(-c3cnn(Cc4ccc(F)cc4F)c3)cn2N2CCCC[C@H]12 [II-005] | 9.7 | 
CCN1C(=O)c2c(O)c(=O)c(-c3cnn(Cc4ncc(Cl)cc4F)c3)cn2N2CCCC[C@H]12 [II-014] | 61 | 
CCN1C(=O)c2c(O)c(=O)c(-c3nnc(Cc4cccc(Cl)c4F)s3)cn2N2CCCC[C@@H]12 [Compound I-006] | 2.7 | 
CN1C(=O)c2c(O)c(=O)c(-c3nnc(Cc4c(F)cc(F)cc4F)s3)cn2N2C[C@@H]3CC[C@@H](O3)[C@@H]12 [II-035] | 0.28 | 
C[C@@H]1CC[C@@H]2N(C)C(=O)c3c(O)c(=O)c(-c4nnc(Cc5c(F)cc(F)cc5F)s4)cn3N12 [II-030] | 1.4 | 

SMILES | EC50 (HIV; [4]) [nM] | other results
CCN1C(=O)c2c(O)c(=O)c(-c3nnc(Cc4cc(F)c(F)cc4F)s3)cn2N2CCCC[C@H]12 [Compound I-011] | 5 | 
CN1C(=O)c2c(O)c(=O)c(-c3nnc(Cc4c(F)cc(F)cc4F)s3)cn2N2CCCC[C@@H]12 [II-004] | 0.7 | 
CCN1C(=O)c2c(O)c(=O)c(-c3nnc(Cc4ccc(F)c(Cl)c4)s3)cn2N2CCCC[C@@H]12 [Compound I-010] | 3.8 | 
C[C@@H]1CCN2[C@@H](C1)N(C)C(=O)c1c(O)c(=O)c(-c3nnc(Cc4ccc(F)cc4F)s3)cn12 [II-034] | 0.13 | 
CN1C(=O)c2c(O)c(=O)c(-c3nnc(Cc4c(F)cc(F)cc4F)s3)cn2N2CCOC[C@H]12 [II-011] | 0.5 | 
C[C@@H]1CC[C@H]2N(C)C(=O)c3c(O)c(=O)c(-c4nnc(Cc5c(F)cc(F)cc5F)s4)cn3N12 [II-031] | 0.13 | 
CC(C)N1C(=O)c2c(O)c(=O)c(-c3nnc(Cc4c(F)cc(F)cc4F)s3)cn2N2C[C@H]3CC[C@H](O3)C12 (some centres unmarked) [II-053] | 1.3 | 
CN1C(=O)c2c(O)c(=O)c(-c3nnc(Cc4cccc(Cl)c4F)s3)cn2N2CCCC[C@H]12 [II-001] | 4.3 | 
CCN1C(=O)c2c(O)c(=O)c(-c3nnc(Cc4ccc(F)cc4F)s3)cn2N2CCOC[C@@H]12 [II-016] | 0.19 | 
CCN1C(=O)c2c(O)c(=O)c(-c3nnc(Cc4ccc(F)cc4)s3)cn2N2CCOC[C@@H]12 [II-020] | 0.7 | 
C[C@H]1CC[C@H]2N(C)C(=O)c3c(O)c(=O)c(-c4nnc(Cc5c(F)cc(F)cc5F)s4)cn3N2C1 [II-042] | 0.2 | 
CN1C(=O)c2c(O)c(=O)c(-c3nnc(Cc4cccc(Cl)c4F)s3)cn2N2CCCC[C@@H]12 [II-002] | 1.6 | 
CCN1C(=O)c2c(O)c(=O)c(-c3nnc(Cc4c(F)cc(F)cc4F)s3)cn2N2CCCC[C@H]12 [Compound I-007] | 2.2 | 
C[C@H]1CCN2[C@@H](C1)N(C)C(=O)c1c(O)c(=O)c(-c3nnc(Cc4ccc(F)cc4F)s3)cn12 [II-032] | 0.13 | 
CCN1C(=O)c2c(O)c(=O)c(-c3nnc(Cc4ccc(F)cc4F)s3)cn2N2CC[C@H](C)[C@@H]12 [II-022] | 0.67 | 
CCN1C(=O)c2c(O)c(=O)c(-c3cnn(Cc4cccc(Cl)c4F)c3)cn2N2CCCC[C@H]12 [II-007] | 14 | 
CCN1C(=O)c2c(O)c(=O)c(-c3nnc(Cc4ccc(F)c(Cl)c4)s3)cn2N2CCCC[C@H]12 [Compound I-009] | 7.2 | 
CCN1C(=O)c2c(O)c(=O)c(-c3nnc(Cc4cccc(Cl)c4F)s3)cn2N2CCCC[C@H]12 [Compound I-005] | 3.2 | 
CN1C(=O)c2c(O)c(=O)c(-c3nnc(Cc4ccc(F)cc4F)s3)cn2N2CCOC[C@H]12 [II-009] |  | EC50 (HIV): 1.3 nM
CCN1C(=O)c2c(O)c(=O)c(-c3nnc(Cc4c(F)cc(F)cc4F)s3)cn2N2CCOC[C@H]12 [II-017] | 1.1 | 
CC(C)N1C(=O)c2c(O)c(=O)c(-c3nnc(Cc4ccc(F)cc4F)s3)cn2N2CC[C@@H](C)C[C@@H]12 [II-059] | 1 | 
CCN1C(=O)c2c(O)c(=O)c(-c3nnc(Cc4ccc(F)cc4)s3)cn2N2C[C@H]3CC[C@H](O3)[C@H]12 [II-049] | 1.6 | 
CN1C(=O)c2c(O)c(=O)c(-c3nnc(Cc4ccc(F)cc4F)s3)cn2N2Cc3ccccc3[C@@H]12 [II-040] | 1.3 | 
CCN1C(=O)c2c(O)c(=O)c(-c3nnc(Cc4ccc(F)cc4F)s3)cn2N2C[C@@H](C)C[C@H]12 [II-021] | 2.6 | 
CCN1C(=O)c2c(O)c(=O)c(-c3nnc(Cc4ccc(F)c(F)c4F)s3)cn2N2CCCC[C@H]12 [Compound I-013] | 3 | 
